ChEMBL document CHEMBL1765071, “Single photon emission computed tomography/positron emission tomography imaging and targeted radionuclide therapy of melanoma: new multimodal fluorinated and iodinated radiotracers” (J Med Chem, 2011)

Legend:
Mus musculus [1] = test: Biodistribution in mouse B16F0 cells bearing C57B16 mouse tumor at 1.26 to 5.29 MBq, iv after 72 hrs; type: ADME, organism-based, Neoplasm; details: in vivo
Mus musculus [2] = test: Biodistribution in mouse B16F0 cells bearing C57B16 mouse tumor at 1.26 to 5.29 MBq, iv after 24 hrs; type: ADME, organism-based, Neoplasm; details: in vivo
Mus musculus [3] = test: Biodistribution in mouse B16F0 cells bearing C57B16 mouse tumor at 1.26 to 5.29 MBq, iv after 6 hrs; type: ADME, organism-based, Neoplasm; details: in vivo
Mus musculus [4] = test: Biodistribution in mouse B16F0 cells bearing C57B16 mouse tumor at 1.26 to 5.29 MBq, iv after 3 hrs; type: ADME, organism-based, Neoplasm; details: in vivo
Mus musculus [5] = test: Biodistribution in mouse B16F0 cells bearing C57B16 mouse tumor at 1.26 to 5.29 MBq, iv after 1 hr; type: ADME, organism-based, Neoplasm; details: in vivo
Mus musculus [6] = test: Biodistribution in mouse B16F0 cells bearing C57B16 mouse tumor at 1.26 to 5.29 MBq, iv after 5 days; type: ADME, organism-based, Neoplasm; details: in vivo, 120 h
Mus musculus [7] = test: Biodistribution in mouse B16F0 cells bearing C57B16 mouse tumor at 1.26 to 5.29 MBq, iv after 7 days; type: ADME, organism-based, Neoplasm; details: in vivo, 168 h
Mus musculus [8] = test: Biodistribution in mouse B16F0 cells bearing C57B16 mouse tumor at 1.26 to 5.29 MBq, iv after 10 days; type: ADME, organism-based, Neoplasm; details: in vivo, 240 h
Mus musculus [9] = test: Biodistribution in mouse B16F0 cells bearing C57B16 mouse tumor at 1.26 to 5.29 MBq, iv after 14 days; type: ADME, organism-based, Neoplasm; details: in vivo, 336 h
Mus musculus [10] = test: Biodistribution in mouse B16F0 cells bearing iv dosed C57B16 mouse tumor assessed as absorption dose; type: ADME, organism-based, Neoplasm; details: in vivo
[11] = Antitumor activity against mouse B16F0 cells bearing C57B16 mouse assessed as inhibition of tumor growth doubling time at 18.5 MBq, iv administered 2 times on day 6 and 10; type: functional
Nucleic Acid [12] = test: Ratio of drug uptake in tumor to muscle in mouse B16F0 cells bearing C57B16 mouse at 2.7 MBq, iv after 1 hr; type: ADME, organism-based; details: in vivo
Nucleic Acid [13] = test: Ratio of drug uptake in tumor to muscle in mouse B16F0 cells bearing C57B16 mouse at 2.7 MBq, iv after 3 hrs; type: ADME, organism-based; details: in vivo
Mus musculus [14] = test: Biodistribution in mouse B16F0 cells bearing C57B16 mouse throat at 2.7 MBq, iv after 1 hr; type: ADME, organism-based; details: in vivo
Mus musculus [15] = test: Biodistribution in mouse B16F0 cells bearing C57B16 mouse throat at 2.7 MBq, iv after 10 days; type: ADME, organism-based; details: in vivo, 240 h
[16] = Biodistribution in mouse B16F0 cells bearing C57B16 mouse urine at 2.7 MBq, iv after up to 24 hrs; type: ADME, organism-based; details: in vivo
[17] = Biodistribution in mouse B16F0 cells bearing C57B16 mouse feces at 2.7 MBq, iv after up to 24 hrs; type: ADME, organism-based; details: in vivo
[18] = Biodistribution in mouse B16F0 cells bearing C57B16 mouse urine at 2.7 MBq, iv after up to 82 hrs; type: ADME, organism-based; details: in vivo
[19] = Biodistribution in mouse B16F0 cells bearing C57B16 mouse feces at 2.7 MBq, iv after up to 72 hrs; type: ADME, organism-based; details: in vivo
Mus musculus [20] = test: Biodistribution in mouse B16F0 cells bearing C57B16 mouse tumor assessed per volume of tissue at 7.4 MBq, iv after 2 hrs; type: ADME, organism-based, Neoplasm; details: in vivo
Mus musculus [21] = test: Biodistribution in mouse B16F10 cells bearing C57B16 mouse tumor assessed per volume of tissue at 7.4 MBq, iv after 2 hrs; type: ADME, organism-based, Neoplasm, B16-F10; details: in vivo
Mus musculus [22] = test: Biodistribution in mouse B16F0 cells bearing C57B16 mouse tumor assessed per volume of tissue at 7.4 MBq, iv after 4 hrs; type: ADME, organism-based, Neoplasm; details: in vivo
Mus musculus [23] = test: Biodistribution in mouse B16F10 cells bearing C57B16 mouse tumor assessed per volume of tissue at 7.4 MBq, iv after 4 hrs; type: ADME, organism-based, Neoplasm, B16-F10; details: in vivo

SMILES | Drug uptake (Mus musculus [1]) [% ID/g] | Drug uptake (Mus musculus [2]) [% ID/g] | Drug uptake (Mus musculus [3]) [% ID/g] | Drug uptake (Mus musculus [4]) [% ID/g] | Drug uptake (Mus musculus [5]) [% ID/g] | Drug uptake (Mus musculus [6]) [% ID/g] | Drug uptake (Mus musculus [7]) [% ID/g] | Drug uptake (Mus musculus [8]) [% ID/g] | Drug uptake (Mus musculus [9]) [% ID/g] | further results
CCN(CCNC(=O)c1cccc2nc3cc([125I])ccc3nc12)CCOc1cccnc1F.Cl.Cl | 5.8 | 13.8 | 13.8 | 12.3 | 11.4 | 3.7 | 2 | 1.2 | 0.7 | 
CCN(CCNC(=O)c1cnc2cc([125I])ccc2n1)c1cccc(F)n1 | 0.4 | 0.9 | 1.8 | 2.2 | 2 | 0.3 | 0.2 |  |  | 
CCN(CCCc1ccnc(F)c1)CCNC(=O)c1cnc2cc([125I])ccc2n1.Cl.Cl | 9.5 | 16.3 | 14.1 | 9.3 | 9.1 | 5.1 | 2.5 | 1.4 | 0.7 | 
CCN(CCNC(=O)c1cn2cc([125I])ccc2n1)CCOc1cccnc1F.Cl.Cl | 8.6 | 15.6 | 13.4 | 13.1 | 13.2 | 6.4 | 3.9 | 2.3 | 1.6 | 
CCN(CC)CCNC(=O)c1cnc2cc([125I])ccc2n1.Cl.Cl | 12.3 | 28 | 29.6 | 26.3 | 21.8 | 7.3 | 3.4 | 1.9 |  | 
CCN(CCNC(=O)c1ccnc(F)c1)CCNC(=O)c1cnc2cc([125I])ccc2n1.Cl.Cl | 9.6 | 12.1 | 12.1 | 8.8 | 9.6 | 5.1 |  |  |  | 
CCN(CCNC(=O)c1cnc2cc([131I])ccc2n1)CCOc1cccnc1F.Cl.Cl |  |  |  |  |  |  |  |  |  | Drug uptake (Mus musculus [10]): 1.12 Gy/MBq; Time [11]: 3.8 days
CCN(CCNC(=O)c1cnc2cc([125I])ccc2n1)CCOc1cccnc1F.Cl.Cl | 10.3 | 18.2 | 18.8 | 20.2 | 12.7 | 5.2 | 3.2 | 1.7 | 0.6 | Ratio (Nucleic Acid [12]): 23; Ratio (Nucleic Acid [13]): 37; Drug uptake (Mus musculus [14]): 1.5 %ID; Drug uptake (Mus musculus [15]): 0.1 %ID; Drug uptake [16]: 38.1 %ID; Drug uptake [17]: 36.1 %ID; Drug uptake [18]: 45.1 %ID; Drug uptake [19]: 18.7 %ID
CCN(CCNC(=O)c1cnc2cc([125I])ccc2n1)Cc1ccnc(F)c1.Cl.Cl | 10 | 16 | 15.4 | 12 | 10.3 | 7.1 |  | 1.9 | 0.8 | 
CCN(CCNC(=O)c1cnc2cc([125I])ccc2n1)CCNc1cccc(F)n1.Cl.Cl | 5.7 | 8.6 | 12.5 | 13.7 | 13.1 | 2.6 | 1.5 | 0.8 | 0.4 | 
CCN(CCNC(=O)c1ccc2cc([125I])ccc2n1)CCOc1cccnc1F.Cl.Cl | 3.2 | 6.3 | 9.7 | 10.8 | 10.7 | 2.3 | 1.1 | 0.4 | 0.2 | 
CCN(CCNC(=O)c1cnc2cc(I)ccc2n1)CCOc1cccnc1[18F] |  |  |  |  |  |  |  |  |  | Drug uptake (Mus musculus [20]): 8.3 %ID; Drug uptake (Mus musculus [21]): 2.1 %ID; Drug uptake (Mus musculus [22]): 0.6 %ID; Drug uptake (Mus musculus [23]): 0.2 %ID
CCN(CCNC(=O)c1ccc2cc([125I])ccc2c1)CCOc1cccnc1F.Cl |  | 5.9 | 7.4 | 8 | 7.9 | 2.8 | 2.1 | 0.2 | 0.6 | 
CCN(CC)Cc1ccnc(F)c1CNC(=O)c1cnc2cc([125I])ccc2n1.Cl.Cl | 4.1 | 6.4 | 6.7 | 6.5 | 5.6 | 2.4 | 1.5 | 0.8 | 0.7 | 
CCN(CCNC(=O)c1cccc2c(=O)c3cc([125I])ccc3[nH]c12)CCOc1cccnc1F.Cl | 8.6 | 16 | 13 | 13 | 10.7 | 4.5 | 4.3 | 2.7 | 2 | 
CCN(CCNC(=O)c1ccc2cncc([125I])c2n1)CCOc1cccnc1F.Cl.Cl | 3.3 | 5.2 | 5.3 | 5.5 | 5.6 | 1.6 | 1.1 | 0.5 | 0.4 | 
CCN(CCNC(=O)c1cnc2cc([125I])ccc2n1)CCc1ccnc(F)c1.Cl.Cl | 7.7 | 11.2 | 14.5 | 13.3 | 12.1 | 5.2 | 3 | 1.6 | 1.1 | 
CCN(CC)CCNC(=O)c1cnc2cc([131I])ccc2n1.Cl.Cl |  |  |  |  |  |  |  |  |  | Drug uptake (Mus musculus [10]): 1.71 Gy/MBq
